Assay results as given in US7759377B2, “Acylaminothiazole derivatives and use thereof as beta-amyloid inhibitors” (Sanofi-Aventis, priority 2004, dated 2010).

Biological target: T1, gamma-secretase (Homo sapiens, UniProt P49768, M146L)
T1 construct: expressed in transfected cells; host or cells: CHO-K1, clone 30-12
Test: β-amyloid cellular test: inhibition of production of β-A4 peptide, ELISA of cellular supernatants
Format: cell-based
Details: CHO-K1 line coexpressing CT100 of APP and PS1 M146L clone 30-12; 24-25 h incubation; secreted amyloid peptide by ELISA
Text: For the β-amyloid cellular test, the CHO—K1 line coexpressing the CT100 of APP and PS1 M146L clone 30-12 is used. The line targets the inhibition of gamma-secretase. Presenilin is linked to gamma-secretase activity (Wolfe M S, Haass C., The Role of presenilins in gamma-secretase activity, J. Biol. Chem. 2001, 276(8): 5413-6) and its coexpression with the amyloid protein or its N-terminal fragment causes an increase in secretion of the peptide A1-42 (β-A4), thereby generating a pharmacological tool which allows inhibition by the compounds of formula (I) of the production of the β-A4 peptide to be evaluated. 96-well culture plates are inoculated with 1×10^5 cells per well in 150 μl of incubation medium. The presence of a minimum percentage (1.3% final) of serum allows cellular adhesion to the plastic after 2-3 hours of incubation at 37° C., in the presence of 5% CO2. The products (15 μl) are tested at 10 μM DMSO 1% final and are incubated for 24-25 h at 37° C. in the presence of 5% CO2 and 100% humidity. After this 24-25 h incubation, the cellular supernatants (100 μl) are transferred to ELISA plates, treated with the capture antibody 6E10 (6E10, epitope: aa1-17, INTERCHIM/SENETEK 320/10), to determine the amount of amyloid peptides secreted by the cells in the presence of compounds according to the invention. A series of synthetic control peptide, “peptide 1-40”, at 5 and 10 ng/ml is treated in parallel. The ELISA plates are incubated overnight at 4° C.
The quantity of bound peptide is detected indirectly in the presence of a competitor which corresponds to the truncated peptide, peptide 1-28 coupled to biotin, which is then detected with streptavidin coupled to alkaline phosphatase. The substrate, p-nitrophenyl phosphate (pNPP FAST p-Nitrophenyl Phosphate, Sigma N2770), gives a yellow, soluble reaction product which can be read at 405 nm. The reaction is stopped with 0.1 M EDTA solution. For this purpose, following binding of the amyloid peptide in the ELISA plate, 50 μl of biotinylated peptide 1-28 are added to 100 μl of cellular supernatant and incubated for 30 minutes at ambient temperature. The ELISA plates are then washed 3 times. After drying by inversion on absorbent paper, 100 μl of streptavidin-alkaline phosphatase (Interchim/Jackson ImmunoResearch Laboratories 016-050-084) are added per well and incubated for 1 hour at ambient temperature. The plates are washed again and then the alkaline phosphatase substrate (pNPP 1 mg/ml) is added in an amount of 100 μl per well. After 30 minutes of incubation at ambient temperature the reaction is stopped by adding 100 μl per well of 0.1 M EDTA and reading is carried out at 405 nm.

| Compound | EC50 |
| --- | --- |
| CCC[C@H](NC(=O)[C@@H](O)C(C)(C)C)C(=O)Nc1nc(-c2nc(-c3ccccc3)no2)c(C(C)C)s1 [Compound 7] | 52 nM |
| CCC[C@H](NC(=O)[C@@H](O)C(C)(C)C)C(=O)Nc1nc(-c2nc3ccccc3o2)c(C(C)C)s1 [Compound 34, 2-{2-(S)-[2-(S)-hydroxy(3,3-dimethyl)butyrylamino]pentanoyl}amino-5-(1-methylethyl)-4-(1,3-benzoxazol-2-yl)thiazole] | 42 nM |
| CCCC(NC(=O)C(O)c1cc(F)cc(F)c1)C(=O)Nc1nc(C)c(-c2nc(C)no2)s1 (stereo not shown) [Compound 40] | 85 nM |
| CCC[C@H](NC(=O)[C@@H](O)C(C)(C)C)C(=O)Nc1ncc(-c2nnnn2Cc2ccccc2)s1 [Compound 51, 2-{2-(S)-[2-(S)-hydroxy(3,3-dimethyl)butyrylamino]pentanoyl}amino-5-(1-benzyl-1H-tetrazol-5-yl)thiazole] | 94 nM |
